Test: Broadband acoustic resonance dissolution spectroscopy (BARDS) dissolution profile in distilled water
Format: physicochemical
Conditions: 0.4M in 100 ml of double distilled water
Method: The inside of the glass was cleaned with distilled water whilst ensuring the outside of the glass is dry with particular care taken to prevent moisture from affecting the microphone. The microphone is placed on the outside of the glass, 5 cm above the 100 ml volume of water and 1.8 cm from the top of the glass. Securing the microphone above the volume line delivers a better spectrum and the distances aid in reproducibility. The microphone and the wire connection to the glass are secured with adhesive tape. 100 mls of distilled water is accurately poured into the glass and set stirring using a magnetic stirrer. The stirring solution is recorded for 30 seconds prior to addition of the analyte compound to record the resonant frequencies of the vessel (spectrum background). The concentration of the analyte compound is 1.37 M where saturation levels allow. The analyte compound is added carefully all at once from a weighing boat to the stirring solution, with care taken to ensure no sample is lost to the glass sides. The sample spectrum is recorded for a total of 800 seconds. Raw data was saved in .wav format files. From these files the spectrum can be replayed acoustically with any media program. This allows data points to be selected using the mouse cursor and saved in a text format file for transplantation into a data manipulation program such as Excel™ or Sigmaplot™. […]

O=S(=O)([O-])[O-].[Cu+2] [anhydrous form, Anhydrous copper sulphate]
time required for complete dissolution: 75 s

Source: patent publication US8813566B2, “Instrumentation and analytical techniques suitable for broadband acoustic resonance dissolution spectroscopy” (University College Cork—National University of Ireland, priority 2008, dated 2014)
